Assay results from the NIST ThermoML archive (doi:10.1016/j.jct.2011.02.003).
Numbers after ± are expanded uncertainties.

How the values were obtained:
[1] = Crystal; DTA
[2] = Molar enthalpy of transition or fusion; details: Crystal; DSC

SMILES | Normal melting temperature [1] | Molar enthalpy of transition or fusion [2]
Nc1ccccc1O [2-hydroxybenzenamine] | 175.57 ± 0.93 °C | 6.39 ± 1.91 kcal/mol
C[C@]12CCC(=O)C=C1CC[C@@H]1[C@@H]2CC[C@@]2(C)[C@H]1CC[C@]2(C)O [17-methyltestosterone] | 164.19 ± 0.71 °C | 5.98 ± 1.79 kcal/mol
